PubChem BioAssay AID2060900 (Molecular Pharmacology Branch, DTP, NCI, 2025)

System: 521955-158-R2-J5-PDC complex spheroids, viability
Test: Anticancer human tumor 521955-158-R2-J5-PDC patient-derived pancreatic carcinoma cell line growth inhibition [RAS]
Settings: for IC50: curve of first compound; for viability, T/C: stronger effect = lower value
Method in brief: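 Agents were tested in combination matrices in half-log decrements from a top concentration at or near clinical Cmax (10 microM if undetermined). Targets were multi-cell spheroids of tumour lines plus HUVEC and MSC stromal cells.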

[1] = second compound 0.0316 µM, first compound 0.0316 µM
[2] = second compound 0.0316 µM, first compound 0.1 µM
[3] = second compound 0.0316 µM, first compound 0.316 µM
[4] = second compound 0.0316 µM, first compound 1 µM
[5] = second compound 0.1 µM, first compound 0.0316 µM
[6] = second compound 0.1 µM, first compound 0.1 µM
[7] = second compound 0.1 µM, first compound 0.316 µM
[8] = second compound 0.1 µM, first compound 1 µM
[9] = second compound 0.316 µM, first compound 0.0316 µM
[10] = second compound 0.316 µM, first compound 0.1 µM
[11] = second compound 0.316 µM, first compound 0.316 µM
[12] = second compound 0.316 µM, first compound 1 µM
[13] = second compound 1 µM, first compound 0.0316 µM
[14] = second compound 1 µM, first compound 0.1 µM
[15] = second compound 1 µM, first compound 0.316 µM
[16] = second compound 1 µM, first compound 1 µM
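Further: compound exposure lasted seven days before the viability read.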
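Wherever viability, T/C is given: spheroids also contain HUVEC endothelial cells and mesenchymal stem cells as stroma.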

Q: Which results are given for CC(C)n1nc(-c2ccc3oc(N)nc3c2)c2c(N)ncnc21 + CCn1c(-c2cccnc2C(C)OC)c2c3cc(ccc31)N1CCOC(CC(NC(=O)C(C(C)C)N(C)C(=O)C3(F)CCN(C(=O)C#CC(C)(C)N(C)C)CC3)C(=O)N3CCCC(N3)C(=O)OCC(C)(C)C2)C1?
A: IC50 (second compound 0.000949 µM): 21 nM; IC50 (second compound 0.003 µM): 20 nM; IC50 (second compound 0.00949 µM): 23.6 nM; IC50 (second compound 0.03 µM): 27.1 nM; IC50 (second compound 0.0949 µM): 19.2 nM; IC50 (second compound 0.3 µM): 13.5 nM; viability, T/C (second compound 0.000949 µM, first compound 0.000316 µM): 96.7%; viability, T/C (second compound 0.000949 µM, first compound 0.001 µM): 77.1%; viability, T/C (second compound 0.000949 µM, first compound 0.00316 µM): 83.1%; viability, T/C (second compound 0.000949 µM, first compound 0.01 µM): 61.4%; viability, T/C (second compound 0.000949 µM, first compound 0.0316 µM): 41.8%; viability, T/C (second compound 0.000949 µM, first compound 0.1 µM): 36.5%; viability, T/C (second compound 0.003 µM, first compound 0.000316 µM): 82%; viability, T/C (second compound 0.003 µM, first compound 0.001 µM): 91%; viability, T/C (second compound 0.003 µM, first compound 0.00316 µM): 91.4%; viability, T/C (second compound 0.003 µM, first compound 0.01 µM): 64.8%; viability, T/C (second compound 0.003 µM, first compound 0.0316 µM): 41.5%; viability, T/C (second compound 0.003 µM, first compound 0.1 µM): 30.1%; viability, T/C (second compound 0.00949 µM, first compound 0.000316 µM): 93.3%; viability, T/C (second compound 0.00949 µM, first compound 0.001 µM): 85.7%; viability, T/C (second compound 0.00949 µM, first compound 0.00316 µM): 83.6%; viability, T/C (second compound 0.00949 µM, first compound 0.01 µM): 70.3%; viability, T/C (second compound 0.00949 µM, first compound 0.0316 µM): 42.5%; viability, T/C (second compound 0.00949 µM, first compound 0.1 µM): 29.2%; viability, T/C (second compound 0.03 µM, first compound 0.000316 µM): 89.2%; viability, T/C (second compound 0.03 µM, first compound 0.001 µM): 101%; viability, T/C (second compound 0.03 µM, first compound 0.00316 µM): 90.4%; viability, T/C (second compound 0.03 µM, first compound 0.01 µM): 69.8%; viability, T/C (second compound 0.03 µM, first compound 0.0316 µM): 48.6%; viability, T/C (second compound 0.03 µM, first compound 0.1 µM): 34.2%; viability, T/C (second compound 0.0949 µM, first compound 0.000316 µM): 73.5%; viability, T/C (second compound 0.0949 µM, first compound 0.001 µM): 83.1%; viability, T/C (second compound 0.0949 µM, first compound 0.00316 µM): 86.2%; viability, T/C (second compound 0.0949 µM, first compound 0.01 µM): 63.3%; viability, T/C (second compound 0.0949 µM, first compound 0.0316 µM): 39.9%; viability, T/C (second compound 0.0949 µM, first compound 0.1 µM): 28.8%; viability, T/C (second compound 0.3 µM, first compound 0.000316 µM): 73.9%; viability, T/C (second compound 0.3 µM, first compound 0.001 µM): 70.3%; viability, T/C (second compound 0.3 µM, first compound 0.00316 µM): 85.2%; viability, T/C (second compound 0.3 µM, first compound 0.01 µM): 55.2%; viability, T/C (second compound 0.3 µM, first compound 0.0316 µM): 40.7%; viability, T/C (second compound 0.3 µM, first compound 0.1 µM): 30%

Q: Which results are given for CC1(O)CCCC1n1c(=O)c(C(F)F)cc2cnc(NC3CCN(S(C)(=O)=O)CC3)nc21 (stereo unspecified) + C=CC(=O)N1CCN(c2nc(OCC3CCCN3C)nc3c(F)c(-c4nc(N)cc(C)c4C(F)(F)F)c(Cl)cc23)C(C)C1?
A: IC50 (second compound 0.00316 µM): 5890 nM; IC50 (second compound 0.01 µM): 6180 nM; IC50 (second compound 0.0316 µM): 6070 nM; IC50 (second compound 0.1 µM): 6240 nM; IC50 (second compound 0.316 µM): 6020 nM; IC50 (second compound 1 µM): 6060 nM; viability, T/C (second compound 0.00316 µM, first compound 0.0316 µM): 93.1%; viability, T/C (second compound 0.00316 µM, first compound 0.1 µM): 83%; viability, T/C (second compound 0.00316 µM, first compound 0.316 µM): 81%; viability, T/C (second compound 0.00316 µM, first compound 1 µM): 80.9%; viability, T/C (second compound 0.00316 µM, first compound 3.16 µM): 121%; viability, T/C (second compound 0.00316 µM, first compound 10 µM): 14.4%; viability, T/C (second compound 0.01 µM, first compound 0.0316 µM): 85.9%; viability, T/C (second compound 0.01 µM, first compound 0.1 µM): 98%; viability, T/C (second compound 0.01 µM, first compound 0.316 µM): 78.6%; viability, T/C (second compound 0.01 µM, first compound 1 µM): 102%; viability, T/C (second compound 0.01 µM, first compound 3.16 µM): 112%; viability, T/C (second compound 0.01 µM, first compound 10 µM): 17.2%; viability, T/C [1]: 87.7%; viability, T/C [2]: 121%; viability, T/C [3]: 80.2%; viability, T/C [4]: 96.4%; viability, T/C (second compound 0.0316 µM, first compound 3.16 µM): 108%; viability, T/C (second compound 0.0316 µM, first compound 10 µM): 12.7%; viability, T/C [5]: 135%; viability, T/C [6]: 85.2%; viability, T/C [7]: 75.2%; viability, T/C [8]: 109%; viability, T/C (second compound 0.1 µM, first compound 3.16 µM): 111%; viability, T/C (second compound 0.1 µM, first compound 10 µM): 13%; viability, T/C [9]: 123%; viability, T/C [10]: 79.3%; viability, T/C [11]: 78.3%; viability, T/C [12]: 89.8%; viability, T/C (second compound 0.316 µM, first compound 3.16 µM): 116%; viability, T/C (second compound 0.316 µM, first compound 10 µM): 12.7%; viability, T/C [13]: 127%; viability, T/C [14]: 89.1%; viability, T/C [15]: 69.5%; viability, T/C [16]: 84%; viability, T/C (second compound 1 µM, first compound 3.16 µM): 119%; viability, T/C (second compound 1 µM, first compound 10 µM): 13%

Q: What does the source list for C=CC(=O)N1CCN(c2nc(OCC3CCCN3C)nc3c(F)c(-c4nc(N)cc(C)c4C(F)(F)F)c(Cl)cc23)C(C)C1 (stereo unspecified) + C#Cc1c(F)ccc2cc(O)cc(-c3ncc4c(N5CC6CCC(C5)N6)nc(OCC56CCCN5CC(F)C6)nc4c3F)c12?
A: IC50 (second compound 0.0316 µM): > 1000 nM; IC50 (second compound 0.1 µM): > 1000 nM; IC50 (second compound 0.316 µM): > 1000 nM; IC50 (second compound 1 µM): > 1000 nM; IC50 (second compound 3.16 µM): < 3.16 nM; IC50 (second compound 10 µM): < 3.16 nM; viability, T/C (second compound 0.0316 µM, first compound 0.00316 µM): 61.3%; viability, T/C (second compound 0.0316 µM, first compound 0.01 µM): 63.1%; viability, T/C [1]: 74.1%; viability, T/C [2]: 57.2%; viability, T/C [3]: 55.6%; viability, T/C [4]: 71.8%; viability, T/C (second compound 0.1 µM, first compound 0.00316 µM): 55.9%; viability, T/C (second compound 0.1 µM, first compound 0.01 µM): 64.8%; viability, T/C [5]: 58.7%; viability, T/C [6]: 48.8%; viability, T/C [7]: 56.6%; viability, T/C [8]: 61.8%; viability, T/C (second compound 0.316 µM, first compound 0.00316 µM): 53.2%; viability, T/C (second compound 0.316 µM, first compound 0.01 µM): 56.8%; viability, T/C [9]: 58.5%; viability, T/C [10]: 54.8%; viability, T/C [11]: 52.8%; viability, T/C [12]: 52.1%; viability, T/C (second compound 1 µM, first compound 0.00316 µM): 48%; viability, T/C (second compound 1 µM, first compound 0.01 µM): 72.6%; viability, T/C [13]: 47.1%; viability, T/C [14]: 60.7%; viability, T/C [15]: 53.2%; viability, T/C [16]: 59.2%; viability, T/C (second compound 3.16 µM, first compound 0.00316 µM): 42.4%; viability, T/C (second compound 3.16 µM, first compound 0.01 µM): 52.1%; viability, T/C (second compound 3.16 µM, first compound 0.0316 µM): 54.8%; viability, T/C (second compound 3.16 µM, first compound 0.1 µM): 56.9%; viability, T/C (second compound 3.16 µM, first compound 0.316 µM): 50.6%; viability, T/C (second compound 3.16 µM, first compound 1 µM): 47.2%; viability, T/C (second compound 10 µM, first compound 0.00316 µM): 40%; viability, T/C (second compound 10 µM, first compound 0.01 µM): 56.9%; viability, T/C (second compound 10 µM, first compound 0.0316 µM): 38.3%; viability, T/C (second compound 10 µM, first compound 0.1 µM): 43.6%; viability, T/C (second compound 10 µM, first compound 0.316 µM): 39.3%; viability, T/C (second compound 10 µM, first compound 1 µM): 29.8%
